Results from patent US11981658B2, “Substituted aminopyridine compounds as EGFR inhibitors” (YUHAN CORPORATION, priority 2021, dated 2024).
Read-outs that look alike come from different tables or passages of the source.

Assays:
EGFR Del19/T790M/C797S = EGFR Del19/T790M/C797S (Homo sapiens, UniProt P00533, C797S/DEL746-750/T790M); experiment: Biochemical EGFR kinase inhibition assay (Lance Ultra TR-FRET), triple mutant del19/T790M/C797S
Procedure, shortened: (§1)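 Step 1: compound in kinase buffer, 0.003–10 μM. Step 2: kinase reaction 1 h at room temperature. Step 4: TR-FRET read at 615/665 nm; IC50 calculated.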

EGFR L858R/T790M/C797S = EGFR L858R/T790M/C797S (Homo sapiens, UniProt P00533, C797S/L858R/T790M); experiment: Biochemical EGFR kinase inhibition assay (Lance Ultra TR-FRET), triple mutant L858R/T790M/C797S
Procedure, shortened: as §1

EGFR Del19/C797S = EGFR Del19/C797S (Homo sapiens, UniProt P00533, C797S/DEL746-750); experiment: Biochemical EGFR kinase inhibition assay (Lance Ultra TR-FRET), double mutant del19/C797S
Procedure, shortened: as §1

EGFR L858R/C797S = EGFR L858R/C797S (Homo sapiens, UniProt P00533, C797S/L858R); experiment: Biochemical EGFR kinase inhibition assay (Lance Ultra TR-FRET), double mutant L858R/C797S
Procedure, shortened: as §1

EGFR wildtype (WT) = EGFR wildtype (WT) (Homo sapiens, UniProt P00533); experiment: Biochemical EGFR kinase inhibition assay (Lance Ultra TR-FRET), wildtype
Procedure, shortened: as §1

[1] = IC50 Del19/T790M/C797S (nM), 100 μM ATP
[2] = Km ATP, read-out: IC50 Del19/T790M/C797S (nM), Km ATP
[3] = IC50 L858R/T790M/C797S (nM), 100 μM ATP
[4] = Km ATP, read-out: IC50 L858R/T790M/C797S (nM), Km ATP
[5] = IC50 Del19/C797S (nM), 100 μM ATP
[6] = Km ATP, read-out: IC50 Del19/C797S (nM), Km ATP
[7] = IC50 L858R/C797S (nM), 100 μM ATP
[8] = Km ATP, read-out: IC50 L858R/C797S (nM), Km ATP
[9] = Km ATP, read-out: IC50 WT (nM), Km ATP
[10] = Km ATP, read-out: IC50 Del19/T790M/C797S (nM) Km ATP
[11] = Km ATP, read-out: IC50 L858R/T790M/C797S (nM) Km ATP
[12] = Km ATP, read-out: IC50 Del19/C797S (nM) Km ATP
[13] = Km ATP, read-out: IC50 L858R/C797S (nM) Km ATP
[14] = Km ATP, read-out: IC50 WT (nM) Km ATP
[15] = ATP at Km, read-out: IC50 Del19/T790M/C797S (nM), Km ATP
[16] = ATP at Km, read-out: IC50 L858R/T790M/C797S (nM), Km ATP
[17] = ATP at Km, read-out: IC50 Del19/C797S (nM), Km ATP
[18] = ATP at Km, read-out: IC50 L858R/C797S (nM), Km ATP
[19] = ATP at Km, read-out: IC50 WT (nM), Km ATP

EGFR Del19/T790M/C797S, sequence (P00533 with tags, fused parts or gaps DEL746-750/T790M/C797S): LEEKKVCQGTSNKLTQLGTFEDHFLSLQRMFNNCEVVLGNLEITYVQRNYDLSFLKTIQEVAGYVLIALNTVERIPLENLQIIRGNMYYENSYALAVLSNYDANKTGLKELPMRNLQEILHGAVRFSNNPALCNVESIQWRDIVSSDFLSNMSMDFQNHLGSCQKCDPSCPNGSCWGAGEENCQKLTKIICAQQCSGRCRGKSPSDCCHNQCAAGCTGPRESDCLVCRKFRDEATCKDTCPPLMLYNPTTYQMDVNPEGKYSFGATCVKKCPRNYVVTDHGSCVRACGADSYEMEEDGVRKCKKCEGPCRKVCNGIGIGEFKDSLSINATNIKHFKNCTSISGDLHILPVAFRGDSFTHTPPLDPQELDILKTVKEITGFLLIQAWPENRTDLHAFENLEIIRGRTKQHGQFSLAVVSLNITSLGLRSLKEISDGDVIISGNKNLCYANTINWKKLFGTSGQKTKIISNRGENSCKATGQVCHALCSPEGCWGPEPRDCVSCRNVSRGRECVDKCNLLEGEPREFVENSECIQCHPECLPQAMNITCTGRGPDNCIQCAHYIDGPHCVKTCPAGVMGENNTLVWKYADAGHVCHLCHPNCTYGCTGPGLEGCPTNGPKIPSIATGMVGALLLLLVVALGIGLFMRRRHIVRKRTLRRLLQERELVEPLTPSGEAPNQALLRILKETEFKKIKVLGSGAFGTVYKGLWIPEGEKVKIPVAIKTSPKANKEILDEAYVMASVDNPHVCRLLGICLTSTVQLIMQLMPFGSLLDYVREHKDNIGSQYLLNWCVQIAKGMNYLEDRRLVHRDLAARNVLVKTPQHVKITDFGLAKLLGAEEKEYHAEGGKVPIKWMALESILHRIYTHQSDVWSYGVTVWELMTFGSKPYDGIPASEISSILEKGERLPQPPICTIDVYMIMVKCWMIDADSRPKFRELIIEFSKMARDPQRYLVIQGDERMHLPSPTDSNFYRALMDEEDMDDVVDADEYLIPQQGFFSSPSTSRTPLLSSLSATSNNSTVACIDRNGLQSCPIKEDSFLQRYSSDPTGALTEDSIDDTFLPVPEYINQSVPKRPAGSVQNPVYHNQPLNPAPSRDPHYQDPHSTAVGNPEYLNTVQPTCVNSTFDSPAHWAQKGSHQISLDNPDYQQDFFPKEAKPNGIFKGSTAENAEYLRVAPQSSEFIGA
EGFR L858R/C797S, sequence (P00533 25-1210 C797S/L858R): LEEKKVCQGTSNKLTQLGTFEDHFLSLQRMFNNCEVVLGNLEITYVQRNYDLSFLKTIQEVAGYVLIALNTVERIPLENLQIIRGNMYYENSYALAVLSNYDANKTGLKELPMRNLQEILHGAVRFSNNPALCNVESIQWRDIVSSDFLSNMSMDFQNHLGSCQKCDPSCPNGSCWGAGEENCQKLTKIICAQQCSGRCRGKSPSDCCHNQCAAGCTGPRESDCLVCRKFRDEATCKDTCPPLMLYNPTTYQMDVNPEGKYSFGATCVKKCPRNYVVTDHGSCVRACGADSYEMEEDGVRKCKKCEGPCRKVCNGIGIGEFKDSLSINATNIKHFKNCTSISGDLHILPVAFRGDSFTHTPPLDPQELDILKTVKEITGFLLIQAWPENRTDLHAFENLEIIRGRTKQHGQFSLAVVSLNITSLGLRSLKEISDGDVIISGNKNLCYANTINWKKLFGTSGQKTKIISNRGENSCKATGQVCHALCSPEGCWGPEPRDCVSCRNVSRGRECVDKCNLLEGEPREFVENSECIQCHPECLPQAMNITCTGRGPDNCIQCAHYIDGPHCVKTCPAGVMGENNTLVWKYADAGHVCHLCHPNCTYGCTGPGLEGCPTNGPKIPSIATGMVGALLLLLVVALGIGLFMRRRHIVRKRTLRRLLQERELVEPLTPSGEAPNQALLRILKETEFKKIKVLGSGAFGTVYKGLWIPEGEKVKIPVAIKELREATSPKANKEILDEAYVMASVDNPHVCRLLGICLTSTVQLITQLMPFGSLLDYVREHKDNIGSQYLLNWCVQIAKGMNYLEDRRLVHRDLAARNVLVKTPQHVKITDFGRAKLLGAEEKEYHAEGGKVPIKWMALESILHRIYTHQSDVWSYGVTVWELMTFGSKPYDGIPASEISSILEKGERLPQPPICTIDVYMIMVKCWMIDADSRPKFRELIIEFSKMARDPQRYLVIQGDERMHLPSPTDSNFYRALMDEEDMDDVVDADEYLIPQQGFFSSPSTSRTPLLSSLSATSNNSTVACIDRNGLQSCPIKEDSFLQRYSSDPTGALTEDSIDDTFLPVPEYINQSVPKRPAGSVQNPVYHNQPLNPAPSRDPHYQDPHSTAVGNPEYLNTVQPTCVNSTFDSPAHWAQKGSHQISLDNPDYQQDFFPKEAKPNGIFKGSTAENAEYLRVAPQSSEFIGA
EGFR L858R/T790M/C797S, sequence (P00533 25-1210 T790M/C797S/L858R): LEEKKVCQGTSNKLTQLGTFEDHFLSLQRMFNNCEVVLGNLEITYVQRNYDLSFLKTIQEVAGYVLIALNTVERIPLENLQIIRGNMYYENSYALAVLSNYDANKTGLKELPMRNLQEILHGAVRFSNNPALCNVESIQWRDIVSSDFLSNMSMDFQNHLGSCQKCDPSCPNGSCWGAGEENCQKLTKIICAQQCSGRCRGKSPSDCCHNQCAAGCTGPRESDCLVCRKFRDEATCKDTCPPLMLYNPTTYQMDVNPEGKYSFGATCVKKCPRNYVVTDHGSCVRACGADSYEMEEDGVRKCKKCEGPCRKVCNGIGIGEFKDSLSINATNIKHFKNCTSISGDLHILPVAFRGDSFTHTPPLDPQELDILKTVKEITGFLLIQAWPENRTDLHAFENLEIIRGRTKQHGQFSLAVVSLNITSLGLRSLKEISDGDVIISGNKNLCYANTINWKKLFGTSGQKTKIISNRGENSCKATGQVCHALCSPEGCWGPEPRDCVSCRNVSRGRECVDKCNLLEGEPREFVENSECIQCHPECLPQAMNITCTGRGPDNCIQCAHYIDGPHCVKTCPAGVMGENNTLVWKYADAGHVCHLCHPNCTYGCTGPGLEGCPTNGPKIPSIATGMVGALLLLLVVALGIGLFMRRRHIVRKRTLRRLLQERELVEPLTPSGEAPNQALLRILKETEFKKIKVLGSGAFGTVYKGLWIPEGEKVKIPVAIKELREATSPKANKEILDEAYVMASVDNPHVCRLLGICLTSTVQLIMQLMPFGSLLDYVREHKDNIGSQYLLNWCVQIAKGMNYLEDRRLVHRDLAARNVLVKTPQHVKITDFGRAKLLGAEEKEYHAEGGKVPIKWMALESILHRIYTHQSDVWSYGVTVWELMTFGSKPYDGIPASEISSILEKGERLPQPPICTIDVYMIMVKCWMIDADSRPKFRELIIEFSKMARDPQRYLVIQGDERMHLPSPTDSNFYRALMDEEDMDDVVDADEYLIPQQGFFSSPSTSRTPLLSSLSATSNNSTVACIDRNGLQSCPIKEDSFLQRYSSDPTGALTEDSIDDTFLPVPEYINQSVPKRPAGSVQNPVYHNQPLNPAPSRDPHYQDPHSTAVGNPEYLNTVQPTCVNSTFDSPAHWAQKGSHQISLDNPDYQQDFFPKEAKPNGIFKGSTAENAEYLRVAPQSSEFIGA
EGFR wildtype (WT), sequence (P00533 25-1210): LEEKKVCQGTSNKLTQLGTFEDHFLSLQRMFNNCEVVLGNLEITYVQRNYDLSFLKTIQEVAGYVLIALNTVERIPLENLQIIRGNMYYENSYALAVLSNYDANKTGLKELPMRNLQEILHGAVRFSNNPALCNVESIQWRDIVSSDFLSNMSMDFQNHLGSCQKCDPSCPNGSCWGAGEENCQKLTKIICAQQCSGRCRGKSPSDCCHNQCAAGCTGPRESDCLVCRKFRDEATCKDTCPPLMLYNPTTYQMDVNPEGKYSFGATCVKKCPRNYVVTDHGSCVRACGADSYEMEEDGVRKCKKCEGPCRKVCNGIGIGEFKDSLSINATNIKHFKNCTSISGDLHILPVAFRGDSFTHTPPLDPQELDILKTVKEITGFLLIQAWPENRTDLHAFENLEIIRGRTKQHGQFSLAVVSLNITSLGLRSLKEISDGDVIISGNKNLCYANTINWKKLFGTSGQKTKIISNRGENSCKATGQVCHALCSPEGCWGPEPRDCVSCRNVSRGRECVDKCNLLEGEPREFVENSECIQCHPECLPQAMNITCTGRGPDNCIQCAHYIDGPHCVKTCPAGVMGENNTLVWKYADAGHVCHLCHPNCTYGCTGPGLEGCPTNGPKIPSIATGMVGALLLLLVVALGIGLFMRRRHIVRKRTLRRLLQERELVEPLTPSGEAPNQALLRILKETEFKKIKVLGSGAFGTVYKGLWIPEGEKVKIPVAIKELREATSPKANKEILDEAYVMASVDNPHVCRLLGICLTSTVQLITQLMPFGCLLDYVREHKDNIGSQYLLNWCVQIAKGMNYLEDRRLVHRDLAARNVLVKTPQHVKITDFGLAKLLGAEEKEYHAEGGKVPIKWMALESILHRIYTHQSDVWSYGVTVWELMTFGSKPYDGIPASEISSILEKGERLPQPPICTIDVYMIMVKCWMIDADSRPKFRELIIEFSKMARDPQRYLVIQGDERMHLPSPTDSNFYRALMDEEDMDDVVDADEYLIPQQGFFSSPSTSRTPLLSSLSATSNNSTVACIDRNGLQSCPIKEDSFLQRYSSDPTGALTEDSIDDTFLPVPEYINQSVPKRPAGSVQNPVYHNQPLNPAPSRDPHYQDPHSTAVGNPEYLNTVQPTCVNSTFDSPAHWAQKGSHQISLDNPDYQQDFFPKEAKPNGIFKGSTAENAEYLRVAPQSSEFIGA

SMILES | IC50 (EGFR Del19/T790M/C797S; [1]) [nM] | IC50 (EGFR Del19/T790M/C797S; [2]) [nM] | IC50 (EGFR L858R/T790M/C797S; [3]) [nM] | IC50 (EGFR L858R/T790M/C797S; [4]) [nM] | IC50 (EGFR Del19/C797S; [5]) [nM] | IC50 (EGFR Del19/C797S; [6]) [nM] | IC50 (EGFR L858R/C797S; [7]) [nM] | IC50 (EGFR L858R/C797S; [8]) [nM] | IC50 (EGFR wildtype (WT); IC50 WT (nM), 100 μM ATP) [nM] | IC50 (EGFR wildtype (WT); [9]) [nM] | IC50 (EGFR Del19/T790M/C797S; [10]) [nM] | IC50 (EGFR L858R/T790M/C797S; [11]) [nM] | IC50 (EGFR Del19/C797S; [12]) [nM] | IC50 (EGFR L858R/C797S; [13]) [nM] | IC50 (EGFR wildtype (WT); [14]) [nM] | IC50 (EGFR Del19/T790M/C797S; [15]) [nM] | IC50 (EGFR L858R/T790M/C797S; [16]) [nM] | IC50 (EGFR Del19/C797S; [17]) [nM] | IC50 (EGFR L858R/C797S; [18]) [nM] | IC50 (EGFR wildtype (WT); [19]) [nM]
CC(C)(O)C1CN(c2cc(Nc3ccnc(-c4cnn(S(=O)(=O)C5CC5)c4)n3)ncc2C#Cc2cnn(CCF)c2)C1 [Example 36, 2-(1-(2-((2-(1-(Cyclopropylsulfonyl)-1H-pyrazol-4-yl)pyrimidin-4-yl)amino)-5-((1-(2-fluoroethyl)-1H-pyrazol-4-yl)ethynyl)pyridin-4-yl)azetidin-3-yl)propan-2-ol] | 2.1 | – | 3 | – | 25.5 | – | 100 | – | > 10000 | – | – | – | – | – | – | – | – | – | – | –
O=S(=O)(C1CC1)n1cc(-c2nccc(Nc3cc(N4CCC(F)(CO)CC4)c(C#Cc4cnn(C5CCOCC5)c4)cn3)n2)cn1 [Example 96, (1-(2-((2-(1-(Cyclopropylsulfonyl)-1H-pyrazol-4-yl)pyrimidin-4-yl)amino)-5-((1-(tetrahydro-2H-pyran-4-yl)-1H-pyrazol-4-yl)ethynyl)pyridin-4-yl)-4-fluoropiperidin-4-yl)methanol] | 1 | – | 2.1 | – | 3.1 | – | 8.1 | – | > 10000 | – | 1 | 0.6 | 3 | 1.5 | 12.8 | – | – | – | – | –
C[C@H](Nc1cc(Nc2ccnc(-c3cnn(S(=O)(=O)C4CC4)c3)n2)ncc1C#Cc1cnn(C)c1)C(C)(C)O [Example 5, (S)-3-((2-((2-(1-(Cyclopropylsulfonyl)-1H-pyrazol-4-yl)pyrimidin-4-yl)amino)-5-((1-methyl-1H-pyrazol-4-yl)ethynyl)pyridin-4-yl)amino)-2-methylbutan-2-ol] | 3.8 | – | 44.3 | – | 404 | – | 418 | – | > 10000 | – | – | – | – | – | – | – | – | – | – | –
Cc1cnc(C#Cc2cnc(Nc3ccnc(-c4cnn(S(=O)(=O)C5CC5)c4)n3)cc2N[C@@H]2CCC[C@H](O)C2)cn1 [Example 170, (1 S,3R)-3-((2-((2-(1-(Cyclopropylsulfonyl)-1H-pyrazol-4-yl)pyrimidin-4-yl)amino)-5-((5-methylpyrazin-2-yl)ethynyl)pyridin-4-yl)amino)cyclohexan-1-ol] | 1 | – | 5.7 | – | 19.9 | – | 316 | – | > 10000 | – | – | – | – | – | – | 0.9 | 0.6 | 4.4 | 23.8 | 286
CC1(CO)CCN(c2cc(Nc3ccnc(-c4cnn(S(=O)(=O)C5CC5)c4)n3)ncc2C#CC2(O)CCOCC2)CC1 [Example 195, 4-((6-((2-(1-(cyclopropylsulfonyl)-1H-pyrazol-4-yl)pyrimidin-4-yl)amino)-4-(4-(hydroxymethyl)-4-methylpiperidin-1-yl)pyridin-3-yl)ethynyl)tetrahydro-2H-pyran-4-ol] | 0.4 | – | 0.4 | – | 2.7 | – | 14.8 | – | 8540 | – | – | – | – | – | – | 0.3 | 0.1 | 2.4 | 2.3 | 19.6
Cn1cc(C#Cc2cnc(Nc3ccnc(-c4cnn(S(=O)(=O)C5CC5)c4)n3)cc2N2CCCC(O)C2)cn1 (centres unmarked) [Example 6, 1-(2-((2-(1-(Cyclopropylsulfonyl)-1H-pyrazol-4-yl)pyrimidin-4-yl)amino)-5-((1-methyl-1H-pyrazol-4-yl)ethynyl)pyridin-4-yl)piperidin-3-ol] | 0.5 | – | 4.2 | – | 5.1 | – | 24.1 | – | 6020 | – | – | – | – | – | – | – | – | – | – | –
Cn1cc(C#Cc2cnc(Nc3ccnc(-c4cnn(S(=O)(=O)C5CC5)c4)n3)cc2N2CCC(C(C)(C)CO)CC2)cn1 [Example 14, 2-(1-(2-((2-(1-(Cyclopropylsulfonyl)-1H-pyrazol-4-yl)pyrimidin-4-yl)amino)-5-((1-methyl-1H-pyrazol-4-yl)ethynyl)pyridin-4-yl)piperidin-4-yl)-2-methylpropan-1-ol] | 3.9 | – | 3 | – | 21.7 | – | 41 | – | > 10000 | – | – | – | – | – | – | – | – | – | – | –

The next compounds have a lower IC50 (EGFR Del19/T790M/C797S; [1]) than those just listed; values first:

IC50 (EGFR Del19/T790M/C797S; [1]) [nM] | IC50 (EGFR Del19/T790M/C797S; [2]) [nM] | IC50 (EGFR L858R/T790M/C797S; [3]) [nM] | IC50 (EGFR L858R/T790M/C797S; [4]) [nM] | IC50 (EGFR Del19/C797S; [5]) [nM] | IC50 (EGFR Del19/C797S; [6]) [nM] | IC50 (EGFR L858R/C797S; [7]) [nM] | IC50 (EGFR L858R/C797S; [8]) [nM] | IC50 (EGFR wildtype (WT); IC50 WT (nM), 100 μM ATP) [nM] | IC50 (EGFR wildtype (WT); [9]) [nM] | IC50 (EGFR Del19/T790M/C797S; [10]) [nM] | IC50 (EGFR L858R/T790M/C797S; [11]) [nM] | IC50 (EGFR Del19/C797S; [12]) [nM] | IC50 (EGFR L858R/C797S; [13]) [nM] | IC50 (EGFR wildtype (WT); [14]) [nM] | IC50 (EGFR Del19/T790M/C797S; [15]) [nM] | IC50 (EGFR L858R/T790M/C797S; [16]) [nM] | IC50 (EGFR Del19/C797S; [17]) [nM] | IC50 (EGFR L858R/C797S; [18]) [nM] | IC50 (EGFR wildtype (WT); [19]) [nM] | SMILES
0.2 | 0.1 | 0.3 | 0.1 | 3.1 | 1.7 | 111 | 2.5 | > 10000 | 12.5 | – | – | – | – | – | – | – | – | – | – | O=S(=O)(C1CC1)n1cc(-c2nccc(Nc3cc(NC4CCC(O)CC4)c(C#CC4(F)CCOC4)cn3)n2)cn1 (centres unmarked) [Example 436, (1s,4s)-4-((2-((2-(1-(Cyclopropylsulfonyl)-1H-pyrazol-4-yl)pyrimidin-4-yl)amino)-5-((3-fluorotetrahydrofuran-3-yl)ethynyl)pyridin-4-yl)amino)cyclohexan-1-ol]
0.1 | – | 0.4 | – | 2.2 | – | 13.5 | – | 4300 | – | – | – | – | – | – | – | – | – | – | – | CC1(CO)CCN(c2cc(Nc3ccnc(-c4cnn(S(=O)(=O)C5CC5)c4)n3)ncc2C#CCC2(O)COC2)CC1 [Example 286, 3-(3-(6-((2-(1-(Cyclopropylsulfonyl)-1H-pyrazol-4-yl)pyrimidin-4-yl)amino)-4-(4-(hydroxymethyl)-4-methylpiperidin-1-yl)pyridin-3-yl)prop-2-yn-1-yl)oxetan-3-ol]
0.2 | 0.2 | 0.3 | 0.1 | 0.9 | 0.6 | 24.5 | 2 | 5310 | 20.1 | – | – | – | – | – | – | – | – | – | – | O=S(=O)(C1CC1)n1cc(-c2nccc(Nc3cc(NC4CCC(O)CC4)c(C#CC4(O)CCOC4)cn3)n2)cn1 (centres unmarked) [Example 356, 3-((6-((2-(1-(Cyclopropylsulfonyl)-1H-pyrazol-4-yl)pyrimidin-4-yl)amino)-4-(((1 s, 4s)-4-hydroxycyclohexyl)amino)pyridin-3-yl)ethynyl)tetrahydrofuran-3-ol]
0.2 | – | 0.3 | – | 0.7 | – | 23.4 | – | 5550 | – | 0.2 | 0.1 | 0.6 | 0.5 | 14.2 | – | – | – | – | – | CN(C)CCCn1cc(C#Cc2cnc(Nc3ccnc(-c4cnn(S(=O)(=O)C5CC5)c4)n3)cc2N2CCC(NCCF)CC2)cn1 [Example 145, 2-(1-(Cyclopropylsulfonyl)-1H-pyrazol-4-yl)-N-(5-((1-(3-(dimethylamino)propyl)-1H-pyrazol-4-yl)ethynyl)-4-(4-((2-fluoroethyl)amino)piperidin-1-yl)pyridin-2-yl)pyrimidin-4-amine]
0.3 | – | 0.3 | – | 0.8 | – | 8.9 | – | 1560 | – | – | – | – | – | – | 0.3 | 0.1 | 0.6 | 0.8 | 5.6 | CC1(CO)CCN(c2cc(Nc3ccnc(-c4cnn(S(=O)(=O)C5CC5)c4)n3)ncc2C#CC2CCOC2)CC1 (centres unmarked) [Example 197, (1-(2-((2-(1-(Cyclopropylsulfonyl)-1H-pyrazol-4-yl)pyrimidin-4-yl)amino)-5-((tetrahydrofuran-3-yl)ethynyl)pyridin-4-yl)-4-methylpiperidin-4-yl)methanol]
